# Results: patent US11903945B2, “Methods of treating antipsychotic-induced weight gain with miricorilant” (Corcept Therapeutics Incorporated, priority 2019, dated 2024)
# “And” between values parts separate entries of the source, which are not always exact repeats. Identical values can stand only once.
# Legend:
# [1] = Description: The dose level tested in our Phase 1b trial was 600 mg/day.
# A 2-week, single-center, double-blind, randomized, placebo-controlled study was conducted in healthy male subjects age 18-55 years with BMI between 18-25 kg/m^2 and a stable body weight (defined as the Day 1 pre-dose body weight to be within ±2.0% of screening body weight). […] Food was freely available to all subjects during the study. The difference in mean change in absolute body weight after administration of OLZ+PBO compared to OLZ+MIRI was evaluated using a repeated measures model with imputation applied to missing values.
# (HOMA2-IR values were calculated from fasted glucose and insulin levels using the HOMA (HOMA2 Model) Calculator® application programming interface for SAS (Oxford University 2013, available at the website www.dtu.ox.ac.uk/homacalculator)).
# [2] = patients, cited from earlier work
# [3] = patients; doubled from 1.3±0.5 at baseline; Ebenbichler et al. 2003; cited from earlier work
# [4] = olanzapine prescribing information; cited from earlier work
# [5] = healthy male subjects, listed as miricorilant = MIRI 600 mg/day + OLZ 10 mg/day, listed as olanzapine = placebo + OLZ 10 mg/day
# [6] = healthy male subjects, listed as miricorilant = MIRI 600 mg/day + OLZ, listed as olanzapine = placebo + OLZ 10 mg/day, unit given in Table 1, not in Table 2
# [7] = healthy male subjects, listed as miricorilant = olanzapine+miricorilant, listed as olanzapine = olanzapine+placebo
# [8] = healthy male subjects, listed as miricorilant = olanzapine+miricorilant, listed as olanzapine = olanzapine+placebo, from Table 2 with Table 1 baselines
smiles,measurement,setting,value
"Cc1cc2c(s1)Nc1ccccc1N=C2N1CCN(C)CC1 [olanzapine, reference compound]",Body weight increase from baseline on Day 8,[1]; [5],3.5 kg and 3.49 kg
same,Body weight increase from baseline on Day 15,[1]; [5],5.0 kg and 4.99 kg
same,HOMA2-IR increase from baseline on Day 8,[1]; [5],1.15
same,Insulin increase from baseline on Day 8,[1]; [5],9.14 mIU/L
same,Insulin increase from baseline on Day 15,[1]; [5],9.65 mIU/L
same,Triglycerides increase from baseline on Day 8,[1]; [6],1.09 mmol/L
same,Triglycerides increase from baseline on Day 15,[1]; [6],0.62 mmol/L
same,"Insulin increase from baseline, percent, day 15",[1]; [7],127%
same,"Triglycerides increase from baseline, percent, day 8",[1]; [7],115%
same,"Triglycerides increase from baseline, percent, day 15",[1]; [7],65%
same,"Body weight increase from baseline, percent of baseline, day 8",[1]; [8],4.9%
same,"Body weight increase from baseline, percent of baseline, day 15",[1]; [8],6.9%
same,Number of participants who discontinued the study due to elevated liver enzymes,"[1]; male, human, in vivo, 14 days",5
same,Weight gained after about 40 weeks of administration,[2]; Allison et al. 2001,7 to 8 kg
same,HOMA-IR after 8 weeks of olanzapine treatment,[3],2.6±1.4 mmol/mU·L
same,Adult patients with triglyceride increases of ≥50 mg/dL at 12 weeks,[4],~40%
same,Adult patients with triglyceride increases of ≥50 mg/dL at 48 weeks,[4],more than 60%
OCCOCCN1CCN(C2=Nc3ccccc3Sc3ccccc32)CC1 [quetiapine],"Weight gained after treatment for a ""short time""",[2]; Allison et al. 2001,about 3 kg
Cc1nc2n(c(=O)c1CCN1CCC(c3noc4cc(F)ccc34)CC1)CCCC2 [risperidone],Weight gained over 8-12 weeks,[2]; Allison et al. 2001,2 to 3 kg
O=C1NCCN1CCN1CCC(c2cn(-c3ccc(F)cc3)c3ccc(Cl)cc23)CC1 [sertindole],Mean body weight increase over a period of ten weeks,"[2]; Allison et al., Am J. Psychiatry 1999",2.92 kg
